Test results: PMC8308845, “Discovery of Novel Chemical Series of OXA-48 β-Lactamase Inhibitors by High-Throughput Screening” (Pharmaceuticals, 2021)

Experiments:
OXA-48 [1] = target: T1, OXA-48 (Klebsiella pneumoniae, UniProt Q6XEC0); test: Apparent Km and Vmax of nitrocefin with inhibitor; Ki and α determination; type: biochemical; conditions: for type of reversible inhibition: Lineweaver–Burk plots, with respect to nitrocefin; for α value: mixed model inhibition fit
T1 construct: made in house; host or cells: E. coli BL21(DE3), T7 expression system
T1 sequence (Q6XEC0 23-265, looked up): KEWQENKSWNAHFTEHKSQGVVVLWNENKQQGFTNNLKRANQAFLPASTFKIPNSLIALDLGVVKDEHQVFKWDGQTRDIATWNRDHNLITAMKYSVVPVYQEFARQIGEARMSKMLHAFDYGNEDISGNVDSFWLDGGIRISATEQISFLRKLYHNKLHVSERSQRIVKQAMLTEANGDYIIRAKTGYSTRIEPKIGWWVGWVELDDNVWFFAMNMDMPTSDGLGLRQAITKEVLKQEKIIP
Experimental: To further elucidate the type of reversible inhibition of compounds ID1 and ID2, double substrate (nitrocefin) and inhibitor titrations were run.
In this study, the characterization of the type of reversible inhibition was performed by the determination of the apparent Km and Vmax of nitrocefin in the presence of three concentrations of the selected inhibitors.
Stock AC30, AC50, and AC70 solutions for selected compounds were prepared at 200X in 100% DMSO. 2X compounds were prepared by diluting stock AC30, AC50 and AC70 solutions 1:100 in 1X reaction buffer.
20 μL of 2X compounds with 1% DMSO; 10 μL 4X enzyme (0.0014 ng/µL OXA-48 final concentration) were dispensed into preincubation plate and kept for 15′ at rt. […] Each compound ACn was tested in duplicate against each dose of nitrocefin. Compound activity was quantified on the fluorescence signal measured at 520 nm (kinetic measurement for 60 min of reaction). The initial velocity (V0) of the reaction was computed in the first 300′’ of measurements as robust slope. The slopes computed by Genedata Screener 13.0.5. were copied in GraphPad Prism (version 7.00, GraphPad Software Inc.) for the Michaelis-Menten analysis and the Lineweaver-Burk analysis. The average of slope replicates (n = 2) was transformed into double-reciprocal and linear regression analysis was applied.
a. When the Vmax value was independent from inhibitor concentration and the Km value of the substrate was directly proportional to the inhibitor concentration, the corresponding compound was assigned as competitive inhibitor.
V0 data obtained for the determination of apparent Km and Vmax of nitrocefin in the presence of three concentrations of the selected inhibitors, were used for the computation of Ki and a values using in GraphPad Prism (version 8.00, GraphPad Software Inc.) the mixed model inhibition/nonlinear regression curve fit method.

OXA-48 [2] = target: T1, OXA-48; test: Time-dependent inhibition of OXA-48; type: biochemical; conditions: for dependence of AC50 on preincubation time with OXA-48: preincubation 0, 15, 30, 60, 90, 120, 180, 240 min
Experimental: On this basis, compounds ID1 and ID2 as well as the irreversible reference inhibitor tazobactam were tested in dose–response against OXA-48 lactamase, by pre-incubating the compounds with the enzyme at different time points (0, 15, 30, 60, 90, 120, 180, 240 min) before starting the reaction upon addition of the nitrocefin substrate.
Experimental conditions were identical to the ones applied for the primary assay for HTS: 20 μL of 2X compounds with 1% DMSO; 10 μL 4X enzyme (0.0014 ng/µL OXA-48 final concentration) were dispensed into preincubation plate. The reaction buffer was: 20 mM Hepes pH 8.0, 12.5 mM NaCl, 0.005% BSA-pf, 0.0005% Brij-35.
Preincubation time was for a period spanning from 0 up to 240′ at rt between enzyme and compounds and for 15′ at rt between enzyme and control wells. The reactions were started by transferring of 15 μL of enzyme-compounds or enzyme-control from preincubation plate into assay plate adding 5 μL 4X nitrocefin substrate (25 µM final concentration) at different time points, at 0 (i.e., no preincubation)–15–30–60–90–120–180–240 min of preincubation between OXA-48 and compounds. Reading was at PHERAstar (BMG Labtechnologies), in kinetic for up to 60′ (λex: 485 nm; λem: 520 nm). Data were analyzed to determine the respective AC50 values obtained at all the tested preincubation time points.
b. If the AC50 value was inversely proportional to the preincubation time with OXA-48, the compound was assigned as non-reversible inhibitor.

[3] = test system: K. pneumoniae ATCC BAA-2524; test: MIC by broth microdilution, β-lactam-resistant strain producing OXA-48; type: cell-based, Klebsiella pneumoniae; conditions: Klebsiella pneumoniae, ATCCBAA2524, no β-lactam, BLI tested at 32 µg/mL, read-out: MIC, BLI alone
From the text: (§1) To evaluate the capability of restoring β-lactam susceptibility, the two most promising representatives of SC_2 (ID3) and SC_7 (ID2) were screened alone and in combination with ampicillin (AMP) and IMP against sensitive and resistant Gram-negative bacteria. Avibactam and tazobactam were also included in the MIC characterization as BLI reference compounds. Specifically, we used E. coli ATCC25922 as antibiotic-sensitive strain, while E. coli ATCC BAA-2523 and K. pneumoniae ATCC BAA-2524 as β-lactam-resistant bacteria, producing OXA-48 carbapenemase.
(§2) Test compounds and tazobactam were tested at 32 µg/mL, while avibactam was applied at 4 µg/mL. […] Both antibiotics were selected for the combination study as they can be hydrolyzed by the target OXA-48 enzyme.
(§3) MIC values were determined by the broth dilution method and interpreted using published guidelines described by Clinical and Laboratory Standards Institute (CLSI).
(§4) All BLIs were dissolved in 100% DMSO and they were tested at a fixed concentration of 32 µg/mL and 1% of DMSO final concentration. Avibactam was used as reference β-lactamase inhibitor. All antimicrobials were prepared in line with CLSI susceptibility testing standards. AMP (USP # 1033000; batch no. K1M493) was dissolved at 5.12 mg/mL, IMP (USP # 1337809; batch no. R038R0) and avibactam (Biochem # NXL 104; batch no. 20180726) were dissolved at 1.28 mg/mL in the respective solvents recommended by CLSI (2). Solutions at 4X the final concentrations of the test range were made in Cation adjusted Mueller-Hinton broth (CA-MHB, BD # 212322; batch no. 6117994; Expiry date: 29.02.2020) by serial dilutions, and then diluted 2-fold with CA-MHB (for antimicrobials alone), or with the BLIs/avibactam (for combinations of new/reference inhibitors and antimicrobials). Moreover, all BLIs were tested alone at a fixed concentration of 32 μg/mL. The final concentration of DMSO in the test tubes was 1% for each different combination.
(§5) 50 μL of each well were then transferred from the masterblock into 96-well plates to whom were then added 50 μL of the final inoculum. MIC tests were performed by broth microdilution in line with CLSI susceptibility testing standards. Bacterial inocula were prepared at ca. 1 × 10^6 CFU/mL by diluting 100-fold a 0.5 McFarland suspension in CA-MHB with TES (TREK Diagnostic Systems, Product code: T3462; Batch: 356347; Expiry date: 12-Jun-2019). 50 μL of antibacterial solutions at 2 × the final concentrations were diluted 2-fold with 50 μL of inoculum to give a final inoculum of ca. 5 × 10^5 CFU/mL and desired test concentrations of antibacterial agents. Test plates were incubated according to CLSI guidelines and read visually. MIC values corresponded to the first well with no visible growth.

E. coli ATCC BAA-2523 = test: as above; type: cell-based, Escherichia coli; conditions: Escherichia coli, ATCCBAA2523, no β-lactam, BLI tested at 32 µg/mL, read-out: MIC, BLI alone
From the text: as §1, §2, §3, §4, §5

Row | SMILES | type of reversible inhibition (OXA-48 [1]) | α value (OXA-48 [1]) | dependence of AC50 on preincubation time with OXA-48 (OXA-48 [2]) | MIC [3] | MIC (E. coli ATCC BAA-2523) | AC50 after preincubation relative to AC50 without preincubation (OXA-48 [2]; plateau after 90 min of preincubation)
1 | O=C(O)c1ccc(C=Nn2c(S)nnc2-c2ccccc2)cc1 [ID1] | competitive | 5.50 | independent on the preincubation time | – | – | –
2 | CCc1ccc(-c2n[nH]c3nc(-c4ccc(C(=O)O)cc4)cc(C(=O)O)c23)cc1 [ID2] | competitive | 5.44 | independent on the preincubation time | > 32 µg/mL | > 32 µg/mL | –
3 | C[C@]1(Cn2ccnn2)[C@H](C(=O)O)N2C(=O)C[C@H]2S1(=O)=O [tazobactam, reference compound] | – | – | inversely proportional time-dependent inhibition | > 32 µg/mL | > 32 µg/mL | almost six-fold lower
